Measurements reported in patent publication US20250304549A1, “HYDROXYAMIDE DERIVATIVE AND USE THEREOF” (SICHUAN HUIYU PHARMACEUTICAL CO., LTD., priority 2022, published 2025).
Structures can show the parent of a compound that is named as a salt.

Assays:
NCI-H1417 cells = experiment: In vitro cell inhibition assay - H1417 cell proliferation (CellTiter-Glo); type: cell-based; details: Homo sapiens, NCI-H1417, H1417 small cell lung cancer cell proliferation
Method: 3. In Vitro Cell Inhibition Assay—H1417 Cell Proliferation
The inhibitory effect of the compounds on cell proliferation was assessed by detecting the number of viable cells using the CellTiter-Glo® reagent. […] The compounds were sequentially diluted in a 5-fold concentration gradient with DMSO to obtain 8 different concentrations o. These were diluted with BEGM (containing 10% FBS) cell culture medium to obtain the compound working solution (2×), which was added to the cell supernatant at 100 μL per well. The incubation continued for 7 days at 37° C., 5% CO2. The plate was then removed and equilibrated to room temperature (25° C.) along with the CellTiter-Glo® mixing reagent for 10-30 minutes. After centrifugation, 100 μL of the culture medium was carefully aspirated from each well, and 85 μL of CellTiter-Glo® reagent was added. The cells were thoroughly mixed with the CellTiter-Glo® mixing reagent using a microplate shaker for 2 min. and then incubated at room temperature for 10 min. The 96-well plate was subsequently placed on a multifunctional microplate reader to record the Luminescence values (RLU). • The inhibition rate was calculated using the following formula: […]
(§1) Note: ‘Negative’ refers to the group without inhibitors; ‘Blank’ refers to the group without cells.
(§2) The IC50 value was determined by fitting the inhibition rate by GraphPad Prism software.

NCI-H69 cells = experiment: In vitro cell inhibition assay - NCI-H69 cell proliferation (CellTiter-Glo); type: cell-based; details: Homo sapiens, NCI-H69, H69 small cell lung cancer cell proliferation
Method: 4. In Vitro Cell Inhibition Assay—NCI-H69 Cell Proliferation
The inhibitory effect of the compounds on cell proliferation was assessed by detecting the number of viable cells using the CellTiter-Glo® reagent. NCI-H69 cells in the logarithmic growth phase were collected and inoculated into transparent bottom 96-well plates at a density 1×10^3 cells per well with 100 μL medium, and incubated at 37° C., 5% CO2 overnight. The compounds were sequentially diluted in a 5-fold concentration gradient with DMSO to obtain 8 different concentrations These were then diluted with RPMI-640 (containing 20% FBS) cell culture medium to obtain the compounds working solution (2×), which was added to the cell supernatant at 100 μL per well. The incubation continued for 7 days at 37° C., 5% CO2. The plate was then removed and equilibrated to room temperature (25° C.) along with the CellTiter-Glo® mixing reagent for 10-30 minutes. After centrifugation at 1200 rpm for 5 minutes, 120 μL of the culture medium was carefully aspirated from each well, and 60 μL of CellTiter-Glo® reagent was added. The cells were thoroughly mixed with the CellTiter-Glo® mixing reagent using a microplate shaker for 2 min. and then incubated at room temperature for 10 min. The 96-well plate was subsequently placed on a multifunctional microplate reader to record the Luminescence values (RLU).
The inhibition rate was calculated using the following formula: […]
as §1, §2

pan-HDAC = experiment: In vitro enzyme inhibition assay - HDAC (HDAC-Glo I/II), pan-HDAC; type: biochemical
Method: 2. In Vitro Enzyme Inhibition Assay—HDAC
The effect of the compound on the enzymatic activity of pan-HDAC and two isoforms (HDAC1 and HDAC8) was examined using the HDAC-Glo I/II Assay and Screening System assay to assess the level of inhibition of HDAC protease activity and selectivity in each isoform. The proteins and detection reagents were from the HDAC-Glo™ I/II Assay and Screening System (Promega). A 1 mM stock solution of the compound was prepared in DMSO and diluted in a 5-fold gradient to create a series of 8 concentrations, and a specific volume of the highest concentration was diluted 25 times with HDAC Buffer to obtain 4× working solution of the compound. […] The 384-well plate was then read on a multifunctional microplate reader, with the Luminescence channel selected to record Luminescence values (RLU). The inhibition rate was calculated using the following formula: […]
(§3) Note: ‘Negative’ refers to the group without the inhibitor; ‘Blank’ refers to the group without the enzyme.
(§4) The IC50 value was calculated by fitting the inhibition rate by GraphPad Prism software, employing log (inhibitor) vs. response-Variable Slope (four parameters) model.

LSD1 = LSD1 (Homo sapiens (Human), UniProt O60341); experiment: In vitro enzyme inhibition assay - LSD1 (HTRF); type: biochemical
Method: 1. In Vitro Enzyme Inhibition Assay—LSD1
Initially, a master solution of 90 μM test compound (dissolved in DMSO) was prepared and sequentially diluted with DMSO in a 5-fold concentration gradient to yield a total of 9 concentrations of the compound working solution 1 (90×). Subsequently these 9 concentrations of working solution 1 were sequentially diluted by a 30-fold concentration gradient, i.e., 2 μL of working solution 1 was aspirated and added to 58 μL of Buffer, mixed on a vortex mixer with sufficient shaking to yield 9 concentrations of the screening test compound working solution 2 (3×). […] The mixture was incubated at room temperature for 15 minutes. […] Afterward, 2 μL of a termination solution (containing 5.4 mM 2-PCPA) was added to each well, mixed evenly, and incubated for another 15 minutes. Finally 4 μL of a pre-mixed antibody solution of Eu-anti H3K4 (PerkinElmer, TRF0404-D) and allophycocyanin (Prozyme, PJ27S) (1:1) was added to each well, mixed evenly, and incubated for 60 minutes. […] The inhibition rate was calculated through the following formula: […]
as §3, §4

| IC50 (NCI-H1417 cells) [nM] | IC50 (NCI-H69 cells) [nM] | IC50 (pan-HDAC) [nM] | IC50 (LSD1) [nM] | Compound |
| --- | --- | --- | --- | --- |
| 7.13 | 149 | 9.28 | 0.21 | COc1ccc(-c2cnc(N3CCC(NCc4ccc(CC(F)C(=O)NO)cc4)CC3)c(C#N)c2-c2ccc(C#N)c(F)c2)cc1O (stereo not shown) [Example 219, 3-(4-((1-(3-Cyano-4-(4-cyano-3-fluorophenyl)-5-(3-hydroxy-4-methoxyphenyl)pyridin-2-yl)piperidin-4-yl)amino)methyl) phenyl)-2-fluoro-N-hydroxypropanamide formate] |
| 6.86 | 2290 | 937 | 0.42 | COc1ccc(-c2cnc(N3CCC(NCc4ccc(/C=C(\C)C(=O)NO)nc4)CC3)c(C#N)c2-c2ccc(C#N)c(F)c2)cc1O [Example 220, (E)-3-(5-(((1-(3-Cyano-4-(4-cyano-3-fluorophenyl)-5-(3-hydroxy-4-methoxyphenyl)pyridin-2-yl)piperidin-4-yl)amino)methyl)pyridin-2-yl)-N-hydroxy-2-methylacrylamide formate] |
| 6.42 | 35.8 | 11.5 | 0.03 | COc1ccc(-c2cnc(N3CCC(NCc4ccc(CCC(=O)NO)cc4Cl)CC3)c(C#N)c2-c2ccc(C#N)c(F)c2)cc1O [Example 222, 3-(3-chloro-4-((1-(3-cyano-4-(4-cyano-3-fluorophenyl)-5-(3-hydroxy-4-methoxyphenyl)pyridin-2-yl)piperidin-4-yl)amino)methyl) phenyl)-N-hydroxypropanamide formate] |
| 24.5 | 305 | 10.6 | 0.19 | CC(C)(O)Cn1nnc2cc(-c3cnc(N4CCC(NCc5ccc(/C=C/C(=O)NO)cn5)CC4)c(C#N)c3-c3ccc(C#N)c(F)c3)ccc21 [Example 224, (E)-3-(6-(((1-(3-Cyano-4-(4-cyano-3-fluorophenyl)-5-(1-(2-hydroxy-2-methylpropyl)-1H-benzo[d][1,2,3]triazol-5-yl)pyridin-2-yl)piperidin-4-yl)amino)methyl)pyridin-3-yl)-N-hydroxyacrylamide formate] |
| 8.51 | 78 | 3.43 | 0.35 | CC(C)(O)Cn1nnc2cc(-c3cnc(N4CCC(NCc5ccc(/C=C/C(=O)NO)nc5)CC4)c(C#N)c3-c3ccc(C#N)c(F)c3)ccc21 [Example 225, (E)-3-(5-(((1-(3-Cyano-4-(4-cyano-3-fluorophenyl)-5-(1-(2-hydroxy-2-methylpropyl)-1H-benzo[d][1,2,3]triazol-5-yl)pyridin-2-yl)piperidin-4-yl)amino)methyl)pyridin-2-)-N-hydroxyacrylamide formate] |
| 2.31 | 99.2 | 24.8 | 0.02 | CC(C)(O)Cn1nnc2cc(-c3cnc(N4CCC(NCc5ccc(/C=C/C(=O)NO)cc5)CC4)c(C#N)c3-c3ccc(C#N)c(F)c3)c(F)c(F)c21 [Example 226, (E)-3-(4-(((1-(3-Cyano-4-(4-cyano-3-fluorophenyl)-5-(6,7-difluoro-1-(2-hydroxy-2-methylpropyl)-1H-benzo[d][1,2,3]triazol-5-yl)pyridin-2-yl)piperidin-4-yl)amino)methyl)phenyl-N-hydroxyacrylamide formate] |
| 91.7 | 84.8 | 24.3 | 0.9 | COc1ccc(-c2cnc(N3CCC(CNCc4ccc(/C=C/C(=O)NO)cc4)C3)c(C#N)c2-c2ccc(C#N)c(F)c2)cc1O (stereo not shown) [Example 228, (E)-3-(4-((((1-(3-Cyano-4-(4-cyano-3-fluorophenyl)-5-(3-hydroxy-4-methoxyphenyl)pyridin-2-yl)pyrrolidin-3-yl)methyl)amino)methyl)phenyl)-N-hydroxyacrylamide hydrochloride] |
| 9.36 | 529 | 30.8 | 0.88 | CC1(NCc2ccc(/C=C/C(=O)NO)cc2)CCN(c2ncc(-c3ccc(OCC4(O)CC4)c(O)c3)c(-c3ccc(C#N)c(F)c3)c2C#N)CC1 [Example 229, (E)-3-(4-(1-(3-cyano-4-(4-cyano-3-fluorophenyl)-5-(3-hydroxy-4-((1-hydroxycyclopropyl)methoxy)phenyl)pyridin-2-yl)-4-methylpiperidin-4-yl)amino)methyl) phenyl)-N-hydroxyacrylamide formate] |
| 4.67 | 77 | 10.3 | 1.45 | COc1ccc(-c2cnc(N3CCC(NCc4ncc(/C=C/C(=O)NO)cc4F)CC3)c(C#N)c2-c2ccc(C#N)c(F)c2)cc1O [Example 230, (E)-3-(6-(((1-(3-Cyano-4-(4-cyano-3-fluorophenyl)-5-(3-hydroxy-4-methoxyphenyl)pyridin-2-yl)piperidin-4-yl)amino)methyl)-5-fluoropyridin-3-yl)-N-hydroxyacrylamide formate] |
| 2.35 | 19.2 | 8.01 | 2.38 | CC(NC1CCN(c2ncc(-c3ccc(OCC(C)(C)O)c(O)c3)c(-c3ccc(C#N)c(F)c3)c2C#N)CC1)c1ccc(/C=C/C(=O)NO)cc1 (stereo not shown) [Example 235, (E)-3-(4-(1-((1-(3-Cyano-4-(4-cyano-3-fluorophenyl)-5-(3-hydroxy-4-(2-hydroxy-2-methylpropoxy)phenyl)pyridin-2-yl)piperidin-4-yl)amino)ethyl)phenyl)-N-hydroxyacrylamide formate] |
| 6.02 | 410 | 37 | 0.59 | Cc1noc2cc(-c3cnc(N4CCC(NCc5ccc(/C=C/C(=O)NO)cn5)CC4)c(C#N)c3-c3ccc(C#N)c(F)c3)c(F)cc12 [Example 236, (E)-3-(6-(((1-(3-Cyano-4-(4-cyano-3-fluorophenyl)-5-(5-fluoro-3-methylbenzo[d]isoxazol-6-yl)pyridin-2-yl)piperidin-4-yl)amino)methyl)pyridin-3-yl)-N-hydroxyacrylamide formate] |
| 11.6 | 25.2 | 10.2 | 2.36 | N#Cc1ccc(-c2c(-c3ccc(Cl)c(O)c3)cnc(N3CCC(NCc4ccc(/C=C/C(=O)NO)cn4)CC3)c2C#N)cc1F [Example 239, (E)-3-(6-(((1-(5-(4-Chloro-3-hydroxyphenyl)-3-cyano-4-(4-cyano-3-fluorophenyl)pyridin-2-yl)piperidin-4-yl)amino)methyl)pyridin-3-yl)-N-hydroxyacrylamide formate] |
| 18.4 | 17.8 | 16 | 2.44 | COc1ccc(-c2cnc(N3CCC(NCc4ccc(/C=C/C(=O)NO)cc4)C(C)C3)c(C#N)c2-c2ccc(C#N)c(F)c2)cc1O (stereo not shown) [Example 242, (E)-3-(4-(((1-(3-Cyano-4-(4-cyano-3-fluorophenyl)-5-(3-hydroxy-4-methoxyphenyl)pyridin-2-yl)-3-methylpiperidin-4-yl)amino)methyl)-N-hydroxyacrylamide formate] |
